Key:
[1] = species: Homo sapiens; assay: Hepatic clearance in human; conditions: in vivo
[2] = clinical; conditions: human, in vivo

SMILES | CL [1] | CL renal [2]
CCN1CC(CCN2CCOCC2)C(c2ccccc2)(c2ccccc2)C1=O (stereo unspecified) [DOXAPRAM] | 5 mL/min/kg | 0.3 mL/min/kg
O=c1[nH]c2ccccc2n1CCCN1CCC(n2c(=O)[nH]c3cc(Cl)ccc32)CC1 [DOMPERIDONE] | 9.5 mL/min/kg | 0.038 mL/min/kg
CCCC(CCC)C(=O)O [VALPROIC ACID] | – | 0.0029 mL/min/kg
CCC[C@@H]1C[C@@H](C(=O)N[C@@H]([C@H]2O[C@H](SC)[C@H](O)[C@@H](O)[C@H]2O)[C@H](C)Cl)N(C)C1 [CLINDAMYCIN] | 3.9 mL/min/kg | 0.6 mL/min/kg
Cc1cccc(Nc2ccncc2S(=O)(=O)NC(=O)NC(C)C)c1 [TORSEMIDE] | 0.4 mL/min/kg | 0.1 mL/min/kg
CC(C)(O)c1ccccc1CC[C@@H](SCC1(CC(=O)O)CC1)c1cccc(/C=C/c2ccc3ccc(Cl)cc3n2)c1 [MONTELUKAST] | 0.7 mL/min/kg | 0.0014 mL/min/kg
COc1cc2nc(N3CCN(C(=O)C4CCCO4)CC3)nc(N)c2cc1OC (stereo unspecified) [TERAZOSIN] | 1 mL/min/kg | 0.1 mL/min/kg
C[C@H]1c2cccc(O)c2C(=O)C2=C(O)[C@]3(O)C(=O)C(C(N)=O)=C(O)[C@@H](N(C)C)[C@@H]3[C@@H](O)[C@@H]21.O [DOXYCYCLINE] | 0.3 mL/min/kg | 0.2 mL/min/kg
CCCCNc1cc(C(=O)O)cc(S(N)(=O)=O)c1Oc1ccccc1 [BUMETANIDE] | 1 mL/min/kg | 1.5 mL/min/kg
Cc1nnc(SCC2=C(C(=O)O)N3C(=O)[C@@H](NC(=O)[C@H](O)c4ccccc4)[C@H]3SC2)s1 | 0.2 mL/min/kg | 2.4 mL/min/kg
CCC1(c2ccccc2)C(=O)NC(=O)NC1=O [PHENOBARBITAL] | 0.0479 mL/min/kg | 0.0151 mL/min/kg
CCCCN1CCCCC1C(=O)Nc1c(C)cccc1C (stereo unspecified) [BUPIVACAINE] | 4.2 mL/min/kg | 0.1 mL/min/kg
O=P1(NCCCl)OCCCN1CCCl (stereo unspecified) [IFOSFAMIDE] | 0.5 mL/min/kg | 0.6 mL/min/kg
COc1ccccc1N1CCN(CCCNc2cc(=O)n(C)c(=O)n2C)CC1 | 2.6 mL/min/kg | 0.5 mL/min/kg
NC(=O)NO [HYDROXYUREA] | 1 mL/min/kg | 0.5 mL/min/kg
Cc1ccc(C(=O)Nc2ccc(S(=O)(=O)O)c3cc(S(=O)(=O)O)cc(S(=O)(=O)O)c23)cc1NC(=O)c1cccc(NC(=O)Nc2cccc(C(=O)Nc3cc(C(=O)Nc4ccc(S(=O)(=O)O)c5cc(S(=O)(=O)O)cc(S(=O)(=O)O)c45)ccc3C)c2)c1 [SURAMIN] | 0.0011 mL/min/kg | 0.0046 mL/min/kg
CCOc1cc(CC(=O)N[C@@H](CC(C)C)c2ccccc2N2CCCCC2)ccc1C(=O)O [REPAGLINIDE] | 7.7 mL/min/kg | 0.1 mL/min/kg
O=C(N[C@H](CO)[C@H](O)c1ccc([N+](=O)[O-])cc1)C(Cl)Cl [CHLORAMPHENICOL] | 2.2 mL/min/kg | 0.2 mL/min/kg
CCCCCNC(=N)N/N=C/c1c[nH]c2ccc(OC)cc12 [TEGASEROD] | 17.6 mL/min/kg | 0.4 mL/min/kg
Cc1ccnc2c1NC(=O)c1cccnc1N2C1CC1 [NEVIRAPINE] | 0.3 mL/min/kg | 0.0069 mL/min/kg

SMILES | CL [1] | CL renal [2]
Cc1cc(=O)n(-c2ccccc2)n1C [ANTIPYRINE] | 0.6 mL/min/kg | 0.0243 mL/min/kg
CC1=NS(=O)(=O)c2cc(Cl)ccc2N1 [DIAZOXIDE] | – | 0.1 mL/min/kg
CCS(=O)(=O)CCn1c([N+](=O)[O-])cnc1C [TINIDAZOLE] | 0.5 mL/min/kg | 0.1 mL/min/kg
CCN1CCC[C@H]1CNC(=O)c1c(OC)ccc(Br)c1OC [REMOXIPRIDE] | 1.3 mL/min/kg | 0.4 mL/min/kg
CC[C@H]1OC(=O)[C@H](C)[C@@H](O[C@H]2C[C@@](C)(OC)[C@@H](O)[C@H](C)O2)[C@H](C)[C@@H](O[C@@H]2O[C@H](C)C[C@H](N(C)C)[C@H]2O)[C@](C)(OC)C[C@@H](C)C(=O)[C@H](C)[C@@H](O)[C@]1(C)O [CLARITHROMYCIN] | 4.7 mL/min/kg | 2.6 mL/min/kg
C[C@H]([C@](O)(Cn1cncn1)c1ccc(F)cc1F)S(C)(=O)=O [GENACONAZOLE] | 0.038 mL/min/kg | 0.2 mL/min/kg
Cc1cc(NC(=O)C2=C(O)c3ccccc3S(=O)(=O)N2C)no1 [ISOXICAM] | 0.1 mL/min/kg | 0.0014 mL/min/kg
COc1ccc([C@]2(C#N)CC[C@@H](C(=O)O)CC2)cc1OC1CCCC1 [CILOMILAST] | 0.5 mL/min/kg | 0.005 mL/min/kg
CC(CC(c1ccccc1)c1ccccc1)NC(C)(C)C (stereo unspecified) [TERODILINE] | 1 mL/min/kg | 0.1 mL/min/kg
Cn1c(=O)c2[nH]cnc2n(C)c1=O.O [THEOPHYLLINE] | 0.8 mL/min/kg | 0.1 mL/min/kg
CN(C)CCCC1(c2ccc(F)cc2)OCc2cc(C#N)ccc21 (stereo unspecified) [CITALOPRAM] | 3.8 mL/min/kg | 0.5 mL/min/kg
CN(C)CCC=C1c2ccccc2CCc2ccccc21 [AMITRIPTYLINE] | 6 mL/min/kg | 0.1 mL/min/kg
OC(Cn1cncn1)(Cn1cncn1)c1ccc(F)cc1F [FLUCONAZOLE] | 0.1 mL/min/kg | 0.2 mL/min/kg
COc1ccc2c(c1)N(C[C@H](C)CN(C)C)c1ccccc1S2 [LEVOMEPROMAZINE] | 5.9 mL/min/kg | 4 mL/min/kg
CN(C(=O)c1c(O)c2ccccc2n(C)c1=O)c1ccccc1 [ROQUINIMEX] | 0.1 mL/min/kg | 0.0008 mL/min/kg
CCCCCN(CCCOC)C(=O)[C@@H](CCC(=O)O)NC(=O)c1ccc(Cl)c(Cl)c1 [DEXLOXIGLUMIDE] | 3.3 mL/min/kg | 0.4 mL/min/kg
C[C@@H]1C(=O)O[C@H]2C[C@@]34[C@H]5C[C@@H](C(C)(C)C)[C@]36[C@@H](OC(=O)[C@@H]6O)O[C@@]4(C(=O)O5)[C@]21O [GINKGOLIDE A] | 0.7 mL/min/kg | 1.7 mL/min/kg
NC(=O)CN1CC(O)CC1=O (stereo unspecified) [OXIRACETAM] | 0.1 mL/min/kg | 1.7 mL/min/kg
C=CCN1CCCC1CNC(=O)c1cc2[nH]nnc2cc1OC (stereo unspecified) [ALIZAPRIDE] | 1.3 mL/min/kg | 5.3 mL/min/kg
CN(C)CCCN1c2ccccc2Sc2ccc(Cl)cc21 [CHLORPROMAZINE] | 15.8 mL/min/kg | 0.2 mL/min/kg

SMILES | CL [1] | CL renal [2]
O=C1CN=C(c2ccccc2Cl)c2cc([N+](=O)[O-])ccc2N1 [CLONAZEPAM] | 0.9 mL/min/kg | 0.0088 mL/min/kg
COc1cccc(C2(O)CCCCC2CN(C)C)c1 (stereo unspecified) [TRAMADOL] | 5.5 mL/min/kg | 1 mL/min/kg
Cn1c(=O)c2c(ncn2CC(O)CO)n(C)c1=O (stereo unspecified) [DYPHYLLINE] | 0.8 mL/min/kg | 4 mL/min/kg
CCO[C@@H](Cc1ccc(OCCc2ccc(OS(C)(=O)=O)cc2)cc1)C(=O)O [TESAGLITAZAR] | 0.032 mL/min/kg | 0.007 mL/min/kg
OC(CCN1CCCC1)(c1ccccc1)C1CCCCC1 (stereo unspecified) [PROCYCLIDINE] | 0.8 mL/min/kg | 0.043 mL/min/kg
COC(=O)Nc1nc2ccc(C(=O)c3ccccc3)cc2[nH]1 [MEBENDAZOLE] | 14.8 mL/min/kg | 0.2 mL/min/kg
CCC1=C(C)CN(C(=O)NCCc2ccc(S(=O)(=O)NC(=O)N[C@H]3CC[C@H](C)CC3)cc2)C1=O [GLIMEPIRIDE] | 0.5 mL/min/kg | 0.002 mL/min/kg
C[C@@H]1C(=O)O[C@H]2[C@H](O)[C@@]34[C@H]5C[C@@H](C(C)(C)C)[C@]36[C@@H](OC(=O)[C@@H]6O)O[C@@]4(C(=O)O5)[C@@]12O [GINKOLIDE B] | 1.3 mL/min/kg | 1 mL/min/kg
O=C(O)CCCc1ccc(N(CCCl)CCCl)cc1 [CHLORAMBUCIL] | 2.8 mL/min/kg | 0.028 mL/min/kg
O=c1n(CCCN2CCN(c3cccc(Cl)c3)CC2)nc2ccccn12 [TRAZODONE] | 1.4 mL/min/kg | 0.0018 mL/min/kg
CC(C)(C)NC(=O)[C@H]1CC[C@H]2[C@@H]3CC[C@H]4NC(=O)C=C[C@]4(C)[C@H]3CC[C@]12C [FINASTERIDE] | – | 0.024 mL/min/kg
CCC(CC)O[C@@H]1C=C(C(=O)O)C[C@H](N)[C@H]1NC(C)=O [OSELTAMIVIR CARBOXYLATE] | 0.3 mL/min/kg | –
CO/N=C(\C(=O)N[C@@H]1C(=O)N2C(C(=O)O)=C(COC(N)=O)CS[C@H]12)c1ccco1 [CEFUROXIME] | 0.1 mL/min/kg | –
Cc1cccc(C)c1NC(=O)C(C)N (stereo unspecified) [TOCAINIDE] | 1.4 mL/min/kg | –
O=c1[nH]cnc2c1ncn2[C@H]1CC[C@@H](CO)O1 [DIDANOSINE] | 4.2 mL/min/kg | –
COc1nc(C)nc(Cl)c1N=C1NCCN1 [MOXONIDINE] | 3.5 mL/min/kg | –
CN(CCOc1ccc(CC2SC(=O)NC2=O)cc1)c1ccccn1 (stereo unspecified) [ROSIGLITAZONE] | 0.7 mL/min/kg | –
CN(C)[C@@H]1C(O)=C(C(N)=O)C(=O)[C@@]2(O)C(O)=C3C(=O)c4c(O)cccc4[C@@](C)(O)[C@H]3C[C@@H]12 [TETRACYCLINE] | 0.6 mL/min/kg | –

— ChEMBL document CHEMBL1156824, “Physicochemical space for optimum oral bioavailability: contribution of human intestinal absorption and first-pass elimination” (J Med Chem, 2010)
